Measurements from patent US20040038855A1 (priority 1999, published 2004).
Structures can show the parent of a compound that is named as a salt. Where two headings read alike, the source gives them in different places.

What was measured:
human GALR1 receptor = molecular target: T1, human GALR1 receptor (Homo sapiens, UniProt P47211); assay: Binding affinity at the human GALR1 receptor; conditions: read-out: hGALR1 Ki
T1 construct: expressed in transfected cells
T1 sequence (P47211 1-349): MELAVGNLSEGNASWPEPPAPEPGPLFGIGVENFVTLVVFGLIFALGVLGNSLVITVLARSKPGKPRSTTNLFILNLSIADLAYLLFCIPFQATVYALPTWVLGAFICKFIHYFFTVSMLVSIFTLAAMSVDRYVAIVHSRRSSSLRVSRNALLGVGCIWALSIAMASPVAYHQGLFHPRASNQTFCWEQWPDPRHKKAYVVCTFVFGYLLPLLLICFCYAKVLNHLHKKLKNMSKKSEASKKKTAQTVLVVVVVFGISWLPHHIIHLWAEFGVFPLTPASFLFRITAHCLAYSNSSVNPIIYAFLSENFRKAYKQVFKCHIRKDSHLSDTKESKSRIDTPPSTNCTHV
Text: (§1) The design of such compounds can be optimized by determining their binding affinity at the recombinant MCH1, NPY1, NPY2, Gal1, Gal2, Gal3, and 5HT2C receptors. The methods to obtain the cDNA of the receptor, express said receptors in heterologous systems, and carry out assays to determine binding affinity are described in the following publications: human NPY1 (Larhammar et al., 1992), human NPY5 (U.S. Pat. No. 5,602,024, the disclosure of which is hereby incorporated by reference in its entirety into this application), human Gall (Habert-Ortoli et al., 1994), human Gal2 (Smith et al., 1997), human Gal3 (Smith et al., 1998), and rat 5HT2C (Julius et al., 1988). Additionally, the compounds would optimally not bind at the following receptors due to possible side effects: human H1 histamine and human H2 histamine receptors; human alpha-1A adrenergic, human alpha-1D adrenergic, human alpha-2A adrenergic, human alpha-2B adrenergic, and human alpha-2C adrenergic receptors; human dopamine D1, D2, D3, D4, and D5 receptors; the β-adrenoceptor; and the human 5HT1A, human 5HT1B, human 5HT1D, human 5HT1E, human 5HT1F, human 5HT2A, rat 5HT2C, human 5HT4, human 5HT6, and human 5HT7 receptors.

human GALR2 receptor = molecular target: T2, human GALR2 receptor (Homo sapiens, UniProt O43603); assay: Binding affinity at the human GALR2 receptor; conditions: Table 3a; read-out: hGALR2 Ki
T2 construct: expressed in transfected cells
T2 sequence (O43603 1-387): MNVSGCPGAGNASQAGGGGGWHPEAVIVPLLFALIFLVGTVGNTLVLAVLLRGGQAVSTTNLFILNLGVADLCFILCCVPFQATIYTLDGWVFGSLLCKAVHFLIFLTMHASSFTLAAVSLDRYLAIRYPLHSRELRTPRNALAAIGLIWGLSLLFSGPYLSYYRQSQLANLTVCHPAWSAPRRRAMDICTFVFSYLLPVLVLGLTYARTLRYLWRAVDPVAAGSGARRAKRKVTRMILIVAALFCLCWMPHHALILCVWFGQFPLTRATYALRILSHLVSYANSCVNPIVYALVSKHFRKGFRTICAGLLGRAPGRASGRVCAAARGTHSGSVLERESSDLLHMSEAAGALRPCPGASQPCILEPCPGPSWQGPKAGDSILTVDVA
Text: as §1

human GALR3 receptor = molecular target: T3, human GALR3 receptor (Homo sapiens, UniProt O60755); assay: Binding affinity at the human GALR3 receptor; conditions: read-out: hGALR3 Ki
T3 construct: expressed in transfected cells
T3 sequence (O60755 1-368): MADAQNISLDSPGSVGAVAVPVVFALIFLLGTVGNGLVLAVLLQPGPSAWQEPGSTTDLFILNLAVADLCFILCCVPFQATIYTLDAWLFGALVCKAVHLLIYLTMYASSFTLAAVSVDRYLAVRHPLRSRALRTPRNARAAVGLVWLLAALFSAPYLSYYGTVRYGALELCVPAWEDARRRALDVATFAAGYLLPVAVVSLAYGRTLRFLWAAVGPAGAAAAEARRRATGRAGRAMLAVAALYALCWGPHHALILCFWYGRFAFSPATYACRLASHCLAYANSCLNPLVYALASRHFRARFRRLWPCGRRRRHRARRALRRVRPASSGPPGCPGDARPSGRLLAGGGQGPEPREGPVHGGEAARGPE
Text: as §1

rat 5HT2C receptor = molecular target: T4, rat 5HT2C receptor (Rattus norvegicus, UniProt P08909); assay: Binding affinity at the rat 5HT2C receptor; conditions: Table 3a; read-out: r5HT2C Ki
T4 construct: expressed in transfected cells
T4 sequence (P08909 33-460): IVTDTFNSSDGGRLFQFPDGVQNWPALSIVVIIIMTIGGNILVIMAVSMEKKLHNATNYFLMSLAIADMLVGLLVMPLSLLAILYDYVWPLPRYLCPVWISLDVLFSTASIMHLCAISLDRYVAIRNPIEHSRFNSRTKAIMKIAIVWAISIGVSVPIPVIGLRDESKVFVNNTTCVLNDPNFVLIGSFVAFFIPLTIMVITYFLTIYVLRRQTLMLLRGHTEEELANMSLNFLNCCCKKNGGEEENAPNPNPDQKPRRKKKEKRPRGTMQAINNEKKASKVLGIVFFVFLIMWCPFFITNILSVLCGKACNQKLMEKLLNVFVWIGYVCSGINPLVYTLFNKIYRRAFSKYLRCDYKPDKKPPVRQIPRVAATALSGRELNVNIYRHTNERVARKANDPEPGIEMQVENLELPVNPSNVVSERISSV
Text: as §1
Other 5HT Receptors: Other serotonin receptor binding assays were performed according to published methods: rat 5HT2C receptor (Julius et al., 1988); and 5HT6 (Monsma, et al., 1993). The binding assays using the 5HT4 receptor were performed according to the procedures described in U.S. Pat. No. 5,766,879, the disclosure of which is hereby incorporated by reference in its entirety into this application.

human MCH1 receptor [1] = molecular target: T5, human MCH1 receptor (Homo sapiens, UniProt Q99705); assay: Competition binding, membrane preparations of A293 cells expressing the human MCH1 receptor, [3H] Compound 10 as radioligand; design: expressed in transfected cells; conditions: Table 3b; A293 cell membranes, [3H] Compound 10; read-out: hMCH1* Ki
Method: TRITIATED METHYL (4S)-3-{[(3-{4-[3-(ACETYLAMINO)PHENYL]-1-[…]}PROPYL)AMINO]CARBONYL}-4-(3,4-DIFLUOROPHENYL)-6-(METHOXYMETHYL)-2-OXO-1,2,3,4-TETRAHYDRO-5-PYRIMIDINECARBOXYLATE ([^3H] COMPOUND 10): This radiochemical synthesis was carried out by Amersham Pharmacia Biotech, Cardiff, Wales. A methanolic solution of methyl (4S)-3-({[3-(4-[3-(acetylamino)phenyl]-3,6-dihydro-1(2H)pyridinyl)propyl]amino}carbonyl)-4-(3,4-difluorophenyl)-6-(methoxymethyl)-2-oxo-1,2,3,4-tetrahydro-5-pyrimidinecarboxylate was exposed to tritium gas at 1 atmosphere pressure in the presence of 5% palladium on carbon with stirring overnight to give the tritiated methyl (4S)-3-{[(3-{4-[3-(acetylamino)phenyl]-1-piperidinyl}propyl)amino]carbonyl}-4-(3,4-difluorophenyl)-6-(methoxymethyl)-2-oxo-1,2,3,4-tetrahydro-5-pyrimidinecarboxylate ((+)-isomer) After purification by reverse phase HPLC (Hypersil ODS, 4.6×100 mm, methanol:H2O:Et3N 10:90:1 to 100:0:1 in 15 min at 1.0 mL/min, with radiochemical and UV detection), this product was used as a radioligand in the MCH1 binding assays. The same procedure was carried out with H2 gas in place of ^3H2 to afford the non-radioactive version of Compound 10.

human MCH1 receptor [2] = molecular target: T5, human MCH1 receptor; assay: Intracellular calcium response to MCH in COS-7 cells transfected with MCH1 (fluo-3, FLIPR): antagonist potency; format: cell-based; design: expressed in transfected cells; host or cells: COS-7; conditions: read-out: Kb (nM) hMCH1
Text: MCH1 antagonist compounds were identified by their ability to inhibit the MCH-elicited response. […]. From the IC50 values, the antagonist potency (Kb)was derived using the Cheng-Prussof correction (Lazareno and Birdsall, 1993). […]

rat MCH1 receptor = molecular target: T6, rat MCH1 receptor (Rattus norvegicus, UniProt P97639); assay: Binding affinity (Ki) at the rat MCH1 receptor; conditions: Examples 142-153; read-out: Ki (nM) rMCH1
T6 construct: expressed in transfected cells

[3] = system: micturition reflex, conscious male Sprague Dawley rats; assay: Continuous Slow Transvesicular Infusion (CSTI) rat model; format: in vivo; design: key to Effect of MCH1 antagonist in the CSTI model: B = Produced an increase in bladder capacity in rats relative to baseline capacity; conditions: bladder capacity, intragastric
Method: The effects of compounds on the micturition reflex were assessed in the “distension-induced rhythmic contraction” (DIRC), as described in previous publications (e.g. Maggi et al, 1987; Morikawa et al, 1992), and Continuous Slow Transvesicular Infusion (CSTI) models in rats. Male Sprague Dawley rats weighing approximately 300 g were used for the study. Rats were anaesthetized with pentobarbitone sodium (50 mg/kg, i.p). Through a median abdominal incision, bladder was exposed and a polyethylene cannula (PE 50) was introduced into the bladder through a small cut on the dome of the bladder and the cannula was secured with a purse string suture. The other end of the cannula was exteriorized subcutaneously at the dorsal neck area. Similarly, another cannula (PE 50) was introduced into the stomach through a paramedian abdominal incision with the free end exteriorized subcutaneously to the neck region. The surgical wounds were closed with silk 4-0 suture and the animal was allowed to recover with appropriate post surgical care. On the following day, the animal was placed in a rat restrainer. The open end of the bladder cannula was connected to a pressure transducer as well as infusion pump through a three-way stopcock. The bladder voiding cycles were initiated by continuous infusion of normal saline at the rate of 100 ul/min. The repetitive voiding contractions were recorded on a Power Lab on-line data acquisition software. After recording the basal voiding pattern for an hour, the test drug or vehicle was administered directly into stomach through the intragastric catheter and the voiding cycles were monitored for 5 hours. Micturition pressure and frequency were calculated before and after the treatment (at every 30 min interval) for each animal. Bladder capacity was calculated from the micturition frequency, based on the constant infusion of 100 ul/min. The effect of the test drug was expressed as a percentage of basal, pre-drug bladder capacity. WAY 100635 was used as positive control for comparison.

T6 sequence (P97639 whole entry): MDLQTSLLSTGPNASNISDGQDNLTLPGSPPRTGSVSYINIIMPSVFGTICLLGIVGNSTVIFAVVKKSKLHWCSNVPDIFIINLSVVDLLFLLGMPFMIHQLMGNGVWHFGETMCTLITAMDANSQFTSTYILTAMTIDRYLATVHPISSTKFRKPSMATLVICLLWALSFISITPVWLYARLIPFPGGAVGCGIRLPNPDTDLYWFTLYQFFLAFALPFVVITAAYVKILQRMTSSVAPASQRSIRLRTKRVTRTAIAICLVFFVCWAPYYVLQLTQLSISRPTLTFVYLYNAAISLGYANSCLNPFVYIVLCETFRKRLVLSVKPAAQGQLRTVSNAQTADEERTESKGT
T5 sequence (Q99705 whole entry): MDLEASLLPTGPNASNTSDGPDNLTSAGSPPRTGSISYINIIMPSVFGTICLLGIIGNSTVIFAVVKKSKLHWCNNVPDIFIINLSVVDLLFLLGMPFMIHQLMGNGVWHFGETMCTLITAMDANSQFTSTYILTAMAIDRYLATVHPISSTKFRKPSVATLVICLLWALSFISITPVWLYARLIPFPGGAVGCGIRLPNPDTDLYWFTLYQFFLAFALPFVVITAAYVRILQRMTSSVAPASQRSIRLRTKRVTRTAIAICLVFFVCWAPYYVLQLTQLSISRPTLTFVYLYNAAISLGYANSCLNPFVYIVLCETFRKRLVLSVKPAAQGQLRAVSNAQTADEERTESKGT

For `COCC1=C(C(=O)OC)C(c2ccc(F)c(F)c2)N(C(=O)NCCCN2CCC(c3cccc4ccccc34)CC2)C(=O)N1` (single isomer, unassigned; (+)) [Example 14, (+)-1,2,3,6-TETRAHYDRO-1-{N-[4-(1-NAPHTHYL)-PIPERIDIN-1-YL]PROP-YL}CARBOXAMIDO-4-METHOXYMETHYL-6-(3,4-DIFLUOROPHENYL)-2-OXO-PYRIMIDINE-5-CARBOXYLIC ACID METHYL ESTER], the Ki (human GALR1 receptor; Table 3a) was greater than 50000 nM, the Ki (human GALR1 receptor; Table 3b) was greater than 50000 nM and the Ki (human GALR2 receptor) was 42600 nM. The Ki (human GALR3 receptor; Table 3a) was greater than 50000 nM, the Ki (human GALR3 receptor; Table 3b) was greater than 50000 nM and the Ki (rat 5HT2C receptor) was 663 nM. The melting point was 168 to 172 °C, the Ki (human MCH1 receptor [1]) was 50 nM and the Kb (human MCH1 receptor [2]) was 2 nM.
Work on `COCC1=C(C(=O)OC)C(c2ccc(F)c(F)c2)N(C(=O)NCCCN2CCC(O)(c3ncccc3C)CC2)C(=O)N1` (single isomer, unassigned; (+)) [Example 16, (+)-1,2,3,6-TETRAHYDRO-1-{N-[4-HYDROXY-4-(2-PYRIDYL)-PIPERIDIN-1-YL]PROPYL}CARBOXAMIDO-4-METHOXYMETHYL-6-(3,4-DIFLUOROPHENYL)-2-OXOPYRIMIDINE-5-CARBOXYLIC ACID METHYL ESTER] yielded a melting point of 132 to 135 °C and a Kb (human MCH1 receptor [2]) of 329 nM.
In the case of `COc1ccc2[nH]c(-c3ccccc3)c(CCCN3CCC(c4cccc(NC(=O)C(C)C)c4)CC3)c2c1` [Example 147], the Ki (rat MCH1 receptor) is reported as 2.3 nM and the “Effect of MCH1 antagonist in the CSTI model” value (from here on “Effect of MCH1 antagonist”) [3] is reported as “B”.
For `CCn1c2ccccc2c2cc(CN3CCC(c4cccc(NC(=O)C(C)C)c4)CC3)ccc21` [Example 148], the Ki (rat MCH1 receptor) was 1.7 nM and the “Effect of MCH1 antagonist” value [3] was “B”.
With `Cc1ccc(NC(=O)C(C)C)cc1C1CCN(Cc2ccc(Oc3ccc(F)c(F)c3)cc2)CC1` [Example 152] the Ki (rat MCH1 receptor) was 2.2 nM and the “Effect of MCH1 antagonist” value [3] was “B”.
With `CC(C)C(=O)Nc1cccc(C2CCN(CCCNC(=O)C(c3ccccc3)c3ccccc3)CC2)c1` [Example 153] the Ki (rat MCH1 receptor) was 2.9 nM and the “Effect of MCH1 antagonist” value [3] was “B”.
In the case of `CC(=O)C1=C(C)NC(=O)N(C(=O)NCCCN2CCC(c3cccc(NC(=O)C(C)C)c3)CC2)[C@H]1c1cc(F)c(F)c(F)c1` [Example 155, (+)-5-ACETYL-N-(3-{4-[3-(ISOBUTYRYLAMINO)PHENYL]-1-PIPERIDINYL}PROPYL)-4-METHYL-2-OXO-6-(3,4,5-TRIFLUOROPHENYL)-3,6-DIHYDRO-1(2H)-PYRIMIDINECARBOXAMIDE. HYDROCHLORIDE SALT], the “Effect of MCH1 antagonist” value [3] is reported as “B”.
